Each structure is given as a SMILES string.

The results in this text go back to ChEMBL document CHEMBL5241127, “Design, synthesis and biological evaluation of novel 9-N-substituted-13-alkylberberine derivatives from Chinese medicine as anti-hepatocellular carcinoma agents” (Bioorg Med Chem, 2023).

For one assay, the system named is HepG2. The assay is described as follows: Antiproliferative activity against human HepG2 cells assessed as inhibition of cell growth incubated for 72 hrs by MTT assay. The format is functional, cell-based. The note with it: HepG2, 72 h.
The test system of a further assay is H22. The assay is described as follows: Antitumor activity against […] xenografted in ICR mouse assessed as inhibition of tumor growth at 20 mg/kg, iv administered for 21 days and measured every 2 days relative to control. The format is functional. Particulars: H22, 504 h, time 21 day, read-out: TGI.
The test system of assay [1] is Quadruplex DNA. In words: Binding affinity to c-MYC G4-quadruplex DNA (unknown origin) using fluorescent tagged FPu18T model assessed as stabilization by measuring change in melting temperature at 2 uM by fluorescence based analysis. The format is nucleic-acid assay.
Assay [2] deals with Quadruplex DNA. The assay is described as follows: Binding affinity to c-MYC G4-quadruplex DNA (unknown origin) using fluorescent tagged FPu18T model assessed as stabilization by measuring change in melting temperature at 2 uM incubated in presence of non-fluorescent ds26 DNA by fluorescence based analysis. The format is nucleic-acid assay.
A further assay concerns DNA. In words: Binding affinity to duplex DNA (unknown origin) using fluorescent tagged F10T model assessed as stabilization by measuring change in melting temperature at 2 uM by fluorescence based analysis. The format is nucleic-acid assay.

As to `CCCCCCCCc1c2[n+](cc3c(NCCN)c(OC)ccc13)CCc1cc3c(cc1-2)OCO3`, the IC50 (as a rule, the midpoint of a concentration-inhibition curve) in the assay on HepG2 came to 8610 nM.

As for `CCCCCCCCc1c2[n+](cc3c(NCCCCN)c(OC)ccc13)CCc1cc3c(cc1-2)OCO3`, the IC50 in the assay with HepG2 was 5170 nM.

Regarding `CCCCCCCCc1c2[n+](cc3c(NCCO)c(OC)ccc13)CCc1cc3c(cc1-2)OCO3`, the IC50 in the assay on HepG2 was found to be 2760 nM.

Regarding `CCCCCCCCCCCCc1c2[n+](cc3c(NCCO)c(OC)ccc13)CCc1cc3c(cc1-2)OCO3`, in the assay with HepG2, the IC50 was determined as 2310 nM.

As for `O=P1(N(CCCl)CCCl)NCCCO1` (configuration not stated) [CYCLOPHOSPHAMIDE ANHYDROUS], in the assay with H22, the inhibition in vivo at 20 mg/kg is 64.6%.

On to `CCCCCCc1c2[n+](cc3c(NCCO)c(OC)ccc13)CCc1cc3c(cc1-2)OCO3`, for which the half-inhibitory concentration (IC50) with HepG2 worked out at 4520 nM.

For the compound `CCCCCCCCCCc1c2[n+](cc3c(NCCO)c(OC)ccc13)CCc1cc3c(cc1-2)OCO3`, the IC50 in the assay with HepG2 was determined as 2030 nM.

Turning to `CCCCCCCCc1c2[n+](c3c4c(c(OC)ccc14)N(CCO)C=C3)CCc1cc3c(cc1-2)OCO3`, in the assay with HepG2, the IC50 stood at 2280 nM.

As to `CCCCCCCCc1c2[n+](cc3c(NCCCN4CCOCC4)c(OC)ccc13)CCc1cc3c(cc1-2)OCO3`, the figures for the ΔTm with Quadruplex DNA [1], with Quadruplex DNA [2] and in the assay on DNA were 18.5 °C, 17.4 °C and 0.6 °C, respectively. Besides, the IC50 in the assay on HepG2 stood at 1120 nM.
